Values of other authors, collected in patent publication US12728106B2, “Multiparticulate pharmaceutical composition of tamsulosin and solifenacin” (priority 2020, dated 2026).
Where two headings read alike, the source gives them in different places.

SMILES | Solubility in water | Solubility in dimethyl sulfoxide (room temperature, dimethyl sulfoxide) | Solubility in glacial acetic acid (room temperature, glacial acetic acid) | Solubility in methanol (room temperature, methanol) | Solubility in water (room temperature)
CCOc1ccccc1OCCN[C@H](C)Cc1ccc(OC)c(S(N)(=O)=O)c1.Cl [Tamsulosin hydrochloride, (−)-(R)-5-[2-[[2-(o-Ethoxyphenoxy)ethyl]amino]propyl]-2methoxybenzenesulfonamide, monohydrochloride] | sparingly soluble | – | – | – | –
O=C(O[C@H]1CN2CCC1CC2)N1CCc2ccccc2[C@@H]1c1ccccc1 [Solifenacin succinate, butanedioic acid compound with (1S)-(3R)-1-azabicyclo[2.2.2]oct-3-yl 3,4-dihydro-1-phenyl-2(1H)-iso-quinolinecarboxylate (1:1)] | – | freely soluble | freely soluble | freely soluble | freely soluble
